The subject of series [1] is ARPE19 cells. Briefly: Estimation of autophagosome number in RPE cells (GFP-RFP-LC3 puncta). In kind it is cell-based, human. Conditions: chloroquine as positive control. How it is done: The cells were then treated with 10^7 vg/ml of an Ad-LCN-2 construct (as described above) for 48 h. […] Confocal images were acquired at 60× using Nikon NIS Elements v5.3(Nikon, Melville NY). 3D spot detection was used to segment positive structures for size, shape and intensity for RFP/GFP, and RFP only puncta were identified.

In series [2] the test system is Cryba1 KO RPE explants. Description: Rescue experiments in RPE explants exposed to FAC and Ad-LCN-2 (Western blot, ROS). In kind it is cell-based, mouse. The following applies: pre-treatment, then FAC and Ad-LCN-2. The source says:
RPE explant culture was done as previously described (Shang et al., Commun. Biol., 4(1): 850 (2021)). Briefly, eyeballs were enucleated from WT, Cryba1 KO, Sting KO or Sting^GT mice respectively, immediately after euthanasia by putting in CO2 chamber. The posterior eyecups were cut into four petals after the removal of anterior segments and the neural retina was carefully removed. The resulting RPE-Choroid-Sclera (RCS) complexes were flattened onto PVDF membranes with the RPE cells facing up and cultured as previously described. For experiments involving iron regulation, RPE explants from different genotypes were cultured in presence of ferric ammonium citrate (FAC, Sigma Aldrich, RES20400-A702X) at a dose of 250 μM for 72 h (Hadziahmetovic et al., Am. J Pathol., 179(1): 335-48 (2011)); Chothe et al., Biochem. Biophys. Res. Commun., 405(2): 244-9 (2011)), Adenovirus-LCN-2 (10^7 vg/ml, Ad-LCN-2, Vector Biolabs, ADV-263329) construct for 48 h and with or without chloroquine (ChQ; Sigma Aldrich, C6628-25G), a lysosomal blocker at a dose of 50 μM for the last 6 h of the experimental duration. For rescue experiments, Cryba1 KO explants were cultured and pre-treated with either Def (100 μM for 24 h; Sigma Aldrich, D9533-1G) or Sting inhibitor (H-151; 1 μM for 6 hours; Invitrogen, inh-h151) which was followed by FAC and Ad-LCN-2 treatment as explained above.
Whole cells lysates were made from RPE cells harvested from Cryba1^fl/fl or Cryba1 cKO mice or from in vitro RPE flat mount cultures from different experimental conditions as explained previously. The lysates were either made in 1×RIPA buffer (EMD Milipore, Cat #20-188) or NATIVE lysis buffer (Abcam, ab156035) containing 0.1% of a protease inhibitor cocktail (Sigma Aldrich, 13786) and 0.1% phosphatase inhibitor cocktail (Sigma Aldrich, P0044-5ML). The protein extracts were subjected to quantification by using the Pierce BCA Protein Assay Kit (Thermo Fisher, 23225). The RIPA protein samples were mixed with 4× protein sample buffer (Life Technologies, NP0007) containing 5% 2-mercaptoethanol (Sigma Aldrich, M6256) and heated at 95° C. for 10 min to denature. The native protein samples were mixed with NATIVE sample buffer (Bio-Rad, 1610738) at a 1:1 ratio. The native samples were loaded on NATIVE-PAGE gels (Thermo Fisher, BN1002BOX) and run using NATIVE-PAGE running buffer (Thermo Fisher, BN2001). Samples were loaded onto a 4-12% Bis-Tris Nu-PAGE gel (Invitrogen, NP0323BOX) and run with MES buffer (Invitrogen, NP0002). Proteins were transferred to nitrocellulose membranes (Invitrogen, 1B23001), which were then blocked in 5% blocking grade skim milk (Bio-Rad, 170-6404) or 5% BSA (Sigma Aldrich, A3912-50G) for phosphorylated proteins. The membranes were incubated with the appropriate primary antibody overnight followed by horseradish peroxidase-conjugated anti-rabbit (KPL, 074-1506) or anti-mouse (KPL, 074-1806) secondary antibodies for 1 h at RT. A chemiluminescence development technique was utilized to develop the blots (GE Healthcare, RPN2209) and the blots were imaged using the Azure imaging system (Azure Biosystems, USA). […]
The ROS generation in 10-month-old RPE cells from Cryba1^fl/fl and Cryba1 cKO mice was evaluated as described previously (Ghosh et al., Cell Signal., 68: 109521 (2020)). […]
(In general: A western blot detects proteins with antibodies after separation by electrophoresis.)

Series [3] deals with ARPE19 cells. Description: Live cell imaging of lipid peroxidation with liperfluo dye. In kind it is cell-based, human. How it is done: To assess the levels of lipid peroxidation in RPE cells, ARPE19 cells were cultured on four chambered dishes (VWR, 627871) and then either left untreated (control) or treated with 250 μM of ferric ammonium citrate (FAC) for 72 h to mimic the increased iron levels in vivo, followed by Ad-LCN-2 (10^7 vg/ml) for the last 48 h and chloroquine (50 μM) for the last 6 h of the experimental duration respectively. RSL3 (3 μM, overnight; Cayman Chemicals, 19288) was used as a positive control for ferroptosis activation. The clone #6 monoclonal antibody targeting LCN-2 (mAb; 1 μg/ml, 24 h) antibody and 25 μM (overnight) of ferrostatin-1 (Cayman Chemicals, 17729) were added to the culture to rescue ferroptosis induction in the RPE cells. Prior to imaging, the cells were incubated with Liperfluo (10 μM, Fisher Scientific, L24810) for 30 min, and washed twice with PBS before replacing the original media in each chamber. […] Liperfluo was excited using a diode-pumped light engine (SPECTRA X, Lumencor) and detected using an Prime95b sCMOS camera (Photometrics) and excitation and emission filters from Chroma. […] Data was collected and liperfluo emissions were analyzed using NIS Elements (Nikon, Inc. Melville, NY).

In series [4] the target is T1, Human ATG4B (Homo sapiens, UniProt Q9Y4P1).
T1 construct: purchased Abcam ab188707
T1 sequence (Q9Y4P1 1-393): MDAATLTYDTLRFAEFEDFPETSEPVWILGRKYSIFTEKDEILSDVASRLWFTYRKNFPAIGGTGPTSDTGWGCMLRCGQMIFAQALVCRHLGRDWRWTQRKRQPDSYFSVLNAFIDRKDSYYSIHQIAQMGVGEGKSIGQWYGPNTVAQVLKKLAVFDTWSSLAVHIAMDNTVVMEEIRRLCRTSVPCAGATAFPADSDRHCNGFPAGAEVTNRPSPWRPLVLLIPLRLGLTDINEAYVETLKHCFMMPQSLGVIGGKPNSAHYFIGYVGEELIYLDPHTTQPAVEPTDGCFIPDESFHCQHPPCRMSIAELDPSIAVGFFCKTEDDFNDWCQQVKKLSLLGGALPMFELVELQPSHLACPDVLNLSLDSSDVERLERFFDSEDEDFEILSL
Briefly: Thermal shift assay with sypro orange. Conditions: ATG4B incubated with human LCN-2, vs ATG4B only. The format is binding. How it is done: (§1) Changes in melting temperature (Tm) was assessed to evaluate the binding propensity of LCN-2 and ATG4B. Human ATG4B (Abcam, ab188707) at a dose of 0.5 μg/ml with or without 1 μg/ml of human LCN-2 (R&D Systems, 1757-LC-050) and 5 μM sypro orange (Thermo Fisher, S-6650) were incubated for 30 min at 4° C. The change in Tm was evaluated in a quantitative PCR machine (ABI Systems, USA) using a previously published method (Huynh et al., Curr. Protoc. Protein Sci., 79: 28.9.1-28.9.14 (2015); Layton et al., Protein Sci., 20(8): 1439-50 (2011)).

The target in series [5] is T1, Human ATG4B. Description: Cell free ATG4B activity assay (LC3-GST cleavage). The format is biochemical. Conditions: ATG4B 0.5 μg/ml, LCN-2 1.0 μg/ml, 15 minutes; listed as human recombinant LCN-2. How it is done: ATG4B activity assay was measured by incubating recombinant human LC3-GST (Enzo, BML-UW1155-0500) at a dose of 20 μg/ml with 0.5 μg/ml of human ATG4B (Abcam, ab188707) with or without human LCN-2 (R&D Systems, 1757-LC-050) at a dose of 1 μg/ml for 15 min at room temperature (Pengo et al., Nat. Commun., 8(1): 294 (2017)). The protein samples were then mixed with 4× protein sample buffer (Life Technologies, NP0007) containing 5% 2-mercaptoethanol (Sigma Aldrich, M6256) and heated at 95° C. for 10 min to denature. The samples were then subjected to Western blot using the anti-GST primary antibody (Cell Signaling USA, 2622S) as previously explained (Ghosh et al., J. Pathol., 241(5): 583-588 (2017); Shang et al., Aging Cell, 16(2): 349-359 (2017)).

Series [6] has as its target T2, recombinant human ATG4B (Abcam, ab188707) (human, UniProt Q9Y4P1 1-393, limits assumed).
T2 construct: Bought recombinant protein; also called human recombinant ATG4B; Autophagy Related 4B Cysteine Peptidase
T2 sequence (looked up): T1 sequence (Q9Y4P1 1-393)
Description: thermal shift assay with sypro orange. How it is done: FIGS. 2C-2D are line (2C) and dot plot (2D) graphs showing the results of a thermal shift assay. […] The melting temperature is reflective of the change in sypro orange fluorescence (arbitrary units) which was added (5 μM) to each reaction mixture. n=4. All values are Mean±SD. Significant change is indicated by *P<0.05.
as §1

Series [7] deals with ATG4B activity. Description: GFP-LC3-RFP-ΔLC3 construct and flow cytometry (ATG4B-mediated LC3 processing). In kind it is cell-based, human. Conditions: recombinant LCN-2 1.0 μg/ml for 24 h; relative to control. How it is done: ARPE19 cells were cultured up to 60% confluency and then transfected with the GFP-LC3-RFP-ΔLC3 construct (Addgene, 84572), to assess ATG4B activity, using the manufacturer's protocol of the Lipofectamine 3000 Transfection Reagent (Thermo Fisher, L3000008) for 72 h (Ghosh et al., Commun. Biol., 4(1): 248 (2021)). The transfection efficiency was confirmed by visualizing the GFP and RFP signals in the transfected cells using a fluorescence microscope. This was followed by infection with an Ad-LCN-2 construct (as described above) for 48 h and treatment with recombinant human LCN-2 protein (R&D Systems, 1757-LC-050) at a dose of 1 μg/ml for 24 h in separate experiments. The cells were then scraped off the plates and were analyzed by flow cytometry using the LSR-II platform ([…]). The results were analyzed using the FlowJo software (v10.8) and the data from each group was represented as the ratio of median GFP fluorescence to RFP fluorescence (Kaizuka et al., Mol. Cell, 64(4): 835-849 (2016); Ghosh et al., Commun. Biol., 4(1): 248 (2021)).

Results on five molecules are retold here after patent US20250042983A1, “ANTI-LCN-2 ANTIBODIES AS A TREATMENT FOR EYE DISORDERS” (UNIVERSITY OF PITTSBURGH - OF THE COMMONWEALTH SYSTEM OF …, priority 2021, published 2025).

“Also recorded” adds a separate entry of the source.

For the molecule `CCN(CC)CCCC(C)Nc1ccnc2cc(Cl)ccc12` (stereo not shown) [Chloroquine, chloroquine], in series [1], the “number of puncta (autophagosomes)” value is recorded as “highly increased puncta”.
As for `CCc1ccc(NC(=O)Nc2c[nH]c3ccccc23)cc1` [Clone H-151], in series [2], the “STING levels (Western blot)” value was “such changes were not observed” and the “cGAS levels (Western blot)” value is on record as “such changes were not observed”. Moreover, in series [2] (vs vehicle (DMSO)), the “NLRP3 levels (Western blot)” value was “significantly reduced; also recorded: rescued the levels of NLRP3 inflammasome expression” and the “SOD1 levels (Western blot)” value is “decreased”. The ROS levels entry in series [2] (vs vehicle, listed as STING inhibitor) was “decreased; also recorded: rescued”.
With `COC(=O)c1ccc([C@@H]2c3[nH]c4ccccc4c3C[C@@H](C(=O)OC)N2C(=O)CCl)cc1` [RSL3, reference compound], the “lipid peroxidation (liperfluo emission intensity)” value in series [3] (RSL3 alone as positive control, compared to control) is recorded as “induced lipid peroxidation; also recorded: higher iperfluo emission intensity”.
Consider `CCOC(=O)c1ccc(NC2CCCCC2)c(N)c1` [ferrostatin-1, reference compound], for which the “lipid peroxidation (liperfluo emission intensity)” value in series [3] (ferrostatin-1 pre-treatment of FAC+Ad-LCN-2+Chloroquine (FLC) treated cells) was “could rescue the lipid peroxidation; also recorded: abrogated the changes”.

B1: human recombinant LCN-2 (R&D Systems, 1757-LC-050) (other)
chain: QDSTSDLIPAPPLSKVPLQQNFQDNQFQGKWYVVGLAGNAILREDKDPQKMYATIYELKEDKSYNVTSVLFRKKKCDYWIRTFVPGCQPGEFTLGNIKSYPGLTSYLVRVVSTNYNQHAMVFFKKVSQNREYFKITLYGRTKELTSELKENFIRFSKSLGLPENHIVFPVPIDQCIDG
notes: Bought protein; also called human LCN-2 protein; recombinant human LCN-2
As to B1, the entries for the “melting temperature (Tm) shift of ATG4B” value in series [4] (listed as human LCN-2 protein) and in series [4] (listed as human recombinant LCN-2) were “increase in melting temperature” and “consistent with binding between the two proteins”, respectively. Besides, the “ATG4B activity (GST cleavage from LC3-GST, Western blot)” value in series [5] was “Decreased GST cleavage; also recorded: could inhibit LC3 processing through the inhibition of Atg4b activity”. For the same molecule, in series [6], the binding result is on record as “binds”. The “GFP/RFP ratio (LC3 processing/lipidation)” value in series [7] is on record as “GFP fluorescence was increased; also recorded: increase in the GFP/RFP ratio”.
